Test system: foxtail, giant (giant foxtail, Setaria faberii)
Assay: Test A preemergence, foxtail, giant
Type: in vivo
Settings: 1000 g ai/ha, 0 to 100 scale
In short: (§1)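 Visual injury rating, 0–100 scale (100 = complete control), ~10 d after treatment, relative to untreated controls. Greenhouse pots, loam soil/sand; compound in solvent mix with surfactant applied as soil spray preemergence or foliar postemergence at 1–2-leaf stage.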

| Compound | Plant response rating, Foxtail, Giant |
| --- | --- |
| O=C1NCC(Cc2ccccc2)C1C(=O)Nc1cccc(F)c1F (stereo not shown) [Compound 4] | 0 |
| O=C1NCC(Cc2ccc(F)cc2)C1C(=O)Nc1cccc(F)c1F (stereo not shown) [Compound 13, N-(2,3-difluorophenyl)-4-[(4-fluorophenyl)methyl]-2-oxo-3-pyrrolidinecarboxamide] | 60 |
| O=C1NCC(Cc2ccc(F)cc2)C1C(=O)Nc1ccccc1F (stereo not shown) [Compound 14] | 30 |

Test system: morningglory (Ipomoea spp.)
Assay: Test A preemergence, morningglory
Type: in vivo
Settings: 1000 g ai/ha, 0 to 100 scale
Source text: (§2) Seeds of plant species selected from barnyardgrass (Echinochloa crus-galli), crabgrass (large crabgrass, Digitaria sanguinalis), kochia (Kochia scoparia), ragweed (common ragweed, Ambrosia elatior), morningglory (Ipomoea spp.), velvetleaf (Abutilon theophrasti), ryegrass, It. (Italian ryegrass, Lolium multiflorum), foxtail, giant (giant foxtail, Setaria faberii), wheat (Triticum aestivum), corn (Zea mays), and pigweed (Amaranthus retroflexus), were planted into a blend of loam soil and sand and treated preemergence with a directed soil spray using test chemicals formulated in a non-phytotoxic solvent mixture which included a surfactant. At the same time, plants selected from these crop and weed species and also blackgrass (Alopecurus myosuroides), and galium (catchweed bedstraw, Galium aparine), were planted in pots containing the same blend of loam soil and sand and treated with postemergence applications of test chemicals formulated in the same manner. Plants ranged in height from 2 to 10 cm and were in the one- to two-leaf stage for the postemergence treatment. Treated plants and untreated controls were maintained in a greenhouse for approximately 10 d, after which time all treated plants were compared to untreated controls and visually evaluated for injury. Plant response ratings, summarized in Table A, are based on a 0 to 100 scale where 0 is no effect and 100 is complete control. A dash (-) response means no test result.

| Compound | Plant response rating, Morningglory |
| --- | --- |
| O=C1NCC(Cc2ccccc2)C1C(=O)Nc1cccc(F)c1F (stereo not shown) [Compound 4] | 0 |
| O=C1NCC(Cc2ccc(F)cc2)C1C(=O)Nc1cccc(F)c1F (stereo not shown) [Compound 13, N-(2,3-difluorophenyl)-4-[(4-fluorophenyl)methyl]-2-oxo-3-pyrrolidinecarboxamide] | 0 |
| O=C1NCC(Cc2ccc(F)cc2)C1C(=O)Nc1ccccc1F (stereo not shown) [Compound 14] | 0 |

Test system: foxtail, giant (giant foxtail, Setaria faberii)
Assay: Test A postemergence, foxtail, giant
Type: in vivo
Settings: 1000 g ai/ha, 0 to 100 scale
In short: as §1

| Compound | Plant response rating, Foxtail, Giant |
| --- | --- |
| O=C1NCC(Cc2ccccc2)C1C(=O)Nc1cccc(F)c1F (stereo not shown) [Compound 4] | 0 |
| O=C1NCC(Cc2ccc(F)cc2)C1C(=O)Nc1cccc(F)c1F (stereo not shown) [Compound 13, N-(2,3-difluorophenyl)-4-[(4-fluorophenyl)methyl]-2-oxo-3-pyrrolidinecarboxamide] | 60 |
| O=C1NCC(Cc2ccc(F)cc2)C1C(=O)Nc1ccccc1F (stereo not shown) [Compound 14] | 0 |

Test system: barnyardgrass (Echinochloa crus-galli)
Assay: Test A preemergence, barnyardgrass
Type: in vivo
Settings: 1000 g ai/ha, 0 to 100 scale
In short: as §1

| Compound | Plant response rating, Barnyardgrass |
| --- | --- |
| O=C1NCC(Cc2ccccc2)C1C(=O)Nc1cccc(F)c1F (stereo not shown) [Compound 4] | 0 |
| O=C1NCC(Cc2ccc(F)cc2)C1C(=O)Nc1cccc(F)c1F (stereo not shown) [Compound 13, N-(2,3-difluorophenyl)-4-[(4-fluorophenyl)methyl]-2-oxo-3-pyrrolidinecarboxamide] | 80 |
| O=C1NCC(Cc2ccc(F)cc2)C1C(=O)Nc1ccccc1F (stereo not shown) [Compound 14] | 20 |

Test system: velvetleaf (Abutilon theophrasti)
Assay: Test A postemergence, velvetleaf
Type: in vivo
Settings: 1000 g ai/ha, 0 to 100 scale
Source text: as §2

| Compound | Plant response rating, Velvetleaf |
| --- | --- |
| O=C1NCC(Cc2ccccc2)C1C(=O)Nc1cccc(F)c1F (stereo not shown) [Compound 4] | 0 |
| O=C1NCC(Cc2ccc(F)cc2)C1C(=O)Nc1cccc(F)c1F (stereo not shown) [Compound 13, N-(2,3-difluorophenyl)-4-[(4-fluorophenyl)methyl]-2-oxo-3-pyrrolidinecarboxamide] | 0 |
| O=C1NCC(Cc2ccc(F)cc2)C1C(=O)Nc1ccccc1F (stereo not shown) [Compound 14] | 0 |

Test system: wheat (Triticum aestivum)
Assay: Test A postemergence, wheat
Type: in vivo
Settings: 1000 g ai/ha, 0 to 100 scale
In short: as §1

| Compound | Plant response rating, Wheat |
| --- | --- |
| O=C1NCC(Cc2ccccc2)C1C(=O)Nc1cccc(F)c1F (stereo not shown) [Compound 4] | 0 |
| O=C1NCC(Cc2ccc(F)cc2)C1C(=O)Nc1cccc(F)c1F (stereo not shown) [Compound 13, N-(2,3-difluorophenyl)-4-[(4-fluorophenyl)methyl]-2-oxo-3-pyrrolidinecarboxamide] | 0 |
| O=C1NCC(Cc2ccc(F)cc2)C1C(=O)Nc1ccccc1F (stereo not shown) [Compound 14] | 0 |

Test system: velvetleaf (Abutilon theophrasti)
Assay: Test A preemergence, velvetleaf
Type: in vivo
Settings: 1000 g ai/ha, 0 to 100 scale
Source text: as §2

| Compound | Plant response rating, Velvetleaf |
| --- | --- |
| O=C1NCC(Cc2ccccc2)C1C(=O)Nc1cccc(F)c1F (stereo not shown) [Compound 4] | 0 |
| O=C1NCC(Cc2ccc(F)cc2)C1C(=O)Nc1cccc(F)c1F (stereo not shown) [Compound 13, N-(2,3-difluorophenyl)-4-[(4-fluorophenyl)methyl]-2-oxo-3-pyrrolidinecarboxamide] | 0 |
| O=C1NCC(Cc2ccc(F)cc2)C1C(=O)Nc1ccccc1F (stereo not shown) [Compound 14] | 0 |

Test system: barnyardgrass (Echinochloa crus-galli)
Assay: Test B flooded paddy test, barnyardgrass
Type: in vivo
Settings: Flood, 250 g ai/ha; scale of 0 to 100 where 0 is no effect and 100 is complete control; 13 to 15 d
In short: (§3)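 Plants grown to the 2-leaf stage. At treatment, pots were flooded to 3 cm above the soil, compound was applied directly to the paddy water, and that depth was held throughout. After 13 to 15 d in the greenhouse, response was rated visually against controls on a 0 (no effect) to 100 (complete control) scale.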

| Compound | Plant response rating, Barnyardgrass |
| --- | --- |
| O=C1NCC(Cc2ccc(F)cc2)C1C(=O)Nc1cccc(F)c1F (stereo not shown) [Compound 13, N-(2,3-difluorophenyl)-4-[(4-fluorophenyl)methyl]-2-oxo-3-pyrrolidinecarboxamide] | 0 |

Test system: ducksalad (Heteranthera limosa)
Assay: Test B flooded paddy test, ducksalad
Type: in vivo
Settings: Flood, 250 g ai/ha; scale of 0 to 100 where 0 is no effect and 100 is complete control; 13 to 15 d
In short: as §3

| Compound | Plant response rating, Ducksalad |
| --- | --- |
| O=C1NCC(Cc2ccc(F)cc2)C1C(=O)Nc1cccc(F)c1F (stereo not shown) [Compound 13, N-(2,3-difluorophenyl)-4-[(4-fluorophenyl)methyl]-2-oxo-3-pyrrolidinecarboxamide] | 0 |

Test system: pigweed (Amaranthus retroflexus)
Assay: Test A preemergence, pigweed
Type: in vivo
Settings: 1000 g ai/ha, 0 to 100 scale
In short: as §1

| Compound | Plant response rating, Pigweed |
| --- | --- |
| O=C1NCC(Cc2ccccc2)C1C(=O)Nc1cccc(F)c1F (stereo not shown) [Compound 4] | 0 |
| O=C1NCC(Cc2ccc(F)cc2)C1C(=O)Nc1cccc(F)c1F (stereo not shown) [Compound 13, N-(2,3-difluorophenyl)-4-[(4-fluorophenyl)methyl]-2-oxo-3-pyrrolidinecarboxamide] | 0 |
| O=C1NCC(Cc2ccc(F)cc2)C1C(=O)Nc1ccccc1F (stereo not shown) [Compound 14] | 0 |

Test system: sedge, umbrella (small-flower umbrella sedge, Cyperus difformis)
Assay: Test B flooded paddy test, sedge, umbrella
Type: in vivo
Settings: Flood, 250 g ai/ha; scale of 0 to 100 where 0 is no effect and 100 is complete control; 13 to 15 d
In short: as §3

| Compound | Plant response rating, Sedge, Umbrella |
| --- | --- |
| O=C1NCC(Cc2ccc(F)cc2)C1C(=O)Nc1cccc(F)c1F (stereo not shown) [Compound 13, N-(2,3-difluorophenyl)-4-[(4-fluorophenyl)methyl]-2-oxo-3-pyrrolidinecarboxamide] | 0 |

Test system: rice (Oryza sativa)
Assay: Test B flooded paddy test, rice
Type: in vivo
Settings: Flood, 250 g ai/ha; scale of 0 to 100 where 0 is no effect and 100 is complete control; 13 to 15 d
In short: as §3

| Compound | Plant response rating, Rice |
| --- | --- |
| O=C1NCC(Cc2ccc(F)cc2)C1C(=O)Nc1cccc(F)c1F (stereo not shown) [Compound 13, N-(2,3-difluorophenyl)-4-[(4-fluorophenyl)methyl]-2-oxo-3-pyrrolidinecarboxamide] | 0 |

Test system: barnyardgrass (Echinochloa crus-galli)
Assay: Test A postemergence, barnyardgrass
Type: in vivo
Settings: 1000 g ai/ha, 0 to 100 scale (0 no effect, 100 complete control)
In short: as §1

| Compound | Plant response rating, Barnyardgrass |
| --- | --- |
| O=C1NCC(Cc2ccccc2)C1C(=O)Nc1cccc(F)c1F (stereo not shown) [Compound 4] | 0 |
| O=C1NCC(Cc2ccc(F)cc2)C1C(=O)Nc1cccc(F)c1F (stereo not shown) [Compound 13, N-(2,3-difluorophenyl)-4-[(4-fluorophenyl)methyl]-2-oxo-3-pyrrolidinecarboxamide] | 80 |
| O=C1NCC(Cc2ccc(F)cc2)C1C(=O)Nc1ccccc1F (stereo not shown) [Compound 14] | 0 |

Test system: morningglory (Ipomoea spp.)
Assay: Test A postemergence, morningglory
Type: in vivo
Settings: 1000 g ai/ha, 0 to 100 scale
Source text: as §2

| Compound | Plant response rating, Morningglory |
| --- | --- |
| O=C1NCC(Cc2ccccc2)C1C(=O)Nc1cccc(F)c1F (stereo not shown) [Compound 4] | 0 |
| O=C1NCC(Cc2ccc(F)cc2)C1C(=O)Nc1cccc(F)c1F (stereo not shown) [Compound 13, N-(2,3-difluorophenyl)-4-[(4-fluorophenyl)methyl]-2-oxo-3-pyrrolidinecarboxamide] | 0 |
| O=C1NCC(Cc2ccc(F)cc2)C1C(=O)Nc1ccccc1F (stereo not shown) [Compound 14] | 0 |

Test system: wheat (Triticum aestivum)
Assay: Test A preemergence, wheat
Type: in vivo
Settings: 1000 g ai/ha, 0 to 100 scale
Source text: as §2

| Compound | Plant response rating, Wheat |
| --- | --- |
| O=C1NCC(Cc2ccccc2)C1C(=O)Nc1cccc(F)c1F (stereo not shown) [Compound 4] | 0 |
| O=C1NCC(Cc2ccc(F)cc2)C1C(=O)Nc1cccc(F)c1F (stereo not shown) [Compound 13, N-(2,3-difluorophenyl)-4-[(4-fluorophenyl)methyl]-2-oxo-3-pyrrolidinecarboxamide] | 0 |
| O=C1NCC(Cc2ccc(F)cc2)C1C(=O)Nc1ccccc1F (stereo not shown) [Compound 14] | 0 |

Test system: pigweed (Amaranthus retroflexus)
Assay: Test A postemergence, pigweed
Type: in vivo
Settings: 1000 g ai/ha, 0 to 100 scale
In short: as §1

| Compound | Plant response rating, Pigweed |
| --- | --- |
| O=C1NCC(Cc2ccccc2)C1C(=O)Nc1cccc(F)c1F (stereo not shown) [Compound 4] | 0 |
| O=C1NCC(Cc2ccc(F)cc2)C1C(=O)Nc1cccc(F)c1F (stereo not shown) [Compound 13, N-(2,3-difluorophenyl)-4-[(4-fluorophenyl)methyl]-2-oxo-3-pyrrolidinecarboxamide] | 0 |
| O=C1NCC(Cc2ccc(F)cc2)C1C(=O)Nc1ccccc1F (stereo not shown) [Compound 14] | 0 |

Test system: crabgrass (large crabgrass, Digitaria sanguinalis)
Assay: Test A preemergence, crabgrass
Type: in vivo
Settings: 1000 g ai/ha, 0 to 100 scale
Source text: as §2

| Compound | Plant response rating, Crabgrass |
| --- | --- |
| O=C1NCC(Cc2ccccc2)C1C(=O)Nc1cccc(F)c1F (stereo not shown) [Compound 4] | 60 |
| O=C1NCC(Cc2ccc(F)cc2)C1C(=O)Nc1cccc(F)c1F (stereo not shown) [Compound 13, N-(2,3-difluorophenyl)-4-[(4-fluorophenyl)methyl]-2-oxo-3-pyrrolidinecarboxamide] | 80 |
| O=C1NCC(Cc2ccc(F)cc2)C1C(=O)Nc1ccccc1F (stereo not shown) [Compound 14] | 80 |

Test system: corn (Zea mays)
Assay: Test A preemergence, corn
Type: in vivo
Settings: 1000 g ai/ha, 0 to 100 scale
Source text: as §2

| Compound | Plant response rating, Corn |
| --- | --- |
| O=C1NCC(Cc2ccccc2)C1C(=O)Nc1cccc(F)c1F (stereo not shown) [Compound 4] | 0 |
| O=C1NCC(Cc2ccc(F)cc2)C1C(=O)Nc1cccc(F)c1F (stereo not shown) [Compound 13, N-(2,3-difluorophenyl)-4-[(4-fluorophenyl)methyl]-2-oxo-3-pyrrolidinecarboxamide] | 0 |
| O=C1NCC(Cc2ccc(F)cc2)C1C(=O)Nc1ccccc1F (stereo not shown) [Compound 14] | 0 |

Test system: crabgrass (large crabgrass, Digitaria sanguinalis)
Assay: Test A postemergence, crabgrass
Type: in vivo
Settings: 1000 g ai/ha, 0 to 100 scale
Source text: as §2

| Compound | Plant response rating, Crabgrass |
| --- | --- |
| O=C1NCC(Cc2ccccc2)C1C(=O)Nc1cccc(F)c1F (stereo not shown) [Compound 4] | 20 |
| O=C1NCC(Cc2ccc(F)cc2)C1C(=O)Nc1cccc(F)c1F (stereo not shown) [Compound 13, N-(2,3-difluorophenyl)-4-[(4-fluorophenyl)methyl]-2-oxo-3-pyrrolidinecarboxamide] | 80 |
| O=C1NCC(Cc2ccc(F)cc2)C1C(=O)Nc1ccccc1F (stereo not shown) [Compound 14] | 20 |

Test system: corn (Zea mays)
Assay: Test A postemergence, corn
Type: in vivo
Settings: 1000 g ai/ha, 0 to 100 scale
In short: as §1

| Compound | Plant response rating, Corn |
| --- | --- |
| O=C1NCC(Cc2ccccc2)C1C(=O)Nc1cccc(F)c1F (stereo not shown) [Compound 4] | 0 |
| O=C1NCC(Cc2ccc(F)cc2)C1C(=O)Nc1cccc(F)c1F (stereo not shown) [Compound 13, N-(2,3-difluorophenyl)-4-[(4-fluorophenyl)methyl]-2-oxo-3-pyrrolidinecarboxamide] | 0 |
| O=C1NCC(Cc2ccc(F)cc2)C1C(=O)Nc1ccccc1F (stereo not shown) [Compound 14] | 0 |
